According to ChEMBL document CHEMBL1148163, “Studies on inhibitors of skin tumor promotion, XII. Rotenoids from Amorpha fruticosa” (J Nat Prod, 1993):

How the values were obtained:
[1] = system: Raji; experiment: Inhibition of 12-O-tetradecanoylphorbol-13-acetate induced EBV-early antigen activation in human Raji cells assessed as EA activation at 10 molar ratio relative to TPA; format: cell-based; parameters: scale not given: the % may be the effect or the level left; settings: human gammaherpesvirus 4
[2] = Cytotoxicity against human Raji cells assessed as cell viability at 500 molar ratio; format: cell-based; settings: read-out: Activity
[3] = system: Raji; experiment: Inhibition of 12-O-tetradecanoylphorbol-13-acetate induced EBV-early antigen activation in human Raji cells assessed as EA activation at 1000 molar ratio relative to TPA; format: cell-based; parameters: scale not given: the % may be the effect or the level left; settings: human gammaherpesvirus 4
[4] = Cytotoxicity against human Raji cells assessed as cell viability at 100 molar ratio; format: cell-based; settings: read-out: Activity
[5] = Cytotoxicity against human Raji cells assessed as cell viability at 10 molar ratio; format: cell-based; settings: read-out: Activity
[6] = Cytotoxicity against human Raji cells assessed as cell viability at 1000 molar ratio; format: cell-based; settings: read-out: Activity
[7] = system: Raji; experiment: Inhibition of 12-O-tetradecanoylphorbol-13-acetate induced EBV-early antigen activation in human Raji cells assessed as EA activation at 100 molar ratio relative to TPA; format: cell-based; parameters: scale not given: the % may be the effect or the level left; settings: human gammaherpesvirus 4
[8] = system: Raji; experiment: Inhibition of 12-O-tetradecanoylphorbol-13-acetate induced EBV-early antigen activation in human Raji cells assessed as EA activation at 500 molar ratio relative to TPA; format: cell-based; parameters: scale not given: the % may be the effect or the level left; settings: human gammaherpesvirus 4
[9] = system: Raji; experiment: Effect on TPA-induced cell cycle arrest in human Raji cells assessed as accumulation at G2/M phase at 32 nmol by flow cytometry; format: functional
[10] = system: Mus musculus; experiment: Inhibition of DMBA-induced/TPA-promoted carcinogenesis in ICR mouse assessed as number of mouse bearing one papilloma at 85 nmol administered twice weekly after 1 week of initiation; format: functional; parameters: scale not given: the % may be the effect or the level left
[11] = system: Raji; experiment: Effect on TPA-induced cell cycle arrest in human Raji cells assessed as accumulation at G1 phase at 32 nmol by flow cytometry; format: functional
[12] = system: Mus musculus; experiment: Inhibition of DMBA-induced/TPA-promoted carcinogenesis in ICR mouse assessed as reduction in skin-papilloma formation at 85 nmol administered twice weekly after 1 week of initiation for 20 weeks; format: functional; parameters: scale not given: the % may be the effect or the level left
[13] = system: Raji; experiment: Effect on TPA-induced cell cycle arrest in human Raji cells assessed as accumulation at S phase at 32 nmol by flow cytometry; format: functional
[14] = system: Mus musculus; experiment: Inhibition of DMBA-induced/TPA-promoted carcinogenesis in ICR mouse assessed as number of skin papillomas per mouse at 85 nmol administered twice weekly after 1 week of initiation for 20 weeks; format: functional; parameters: scale not given: the % may be the effect or the level left

| SMILES | Activity [1] [%] | viability at 500 molar ratio [2] [%] | Activity [3] [%] | viability at 100 molar ratio [4] [%] | viability at 10 molar ratio [5] [%] | viability at 1000 molar ratio [6] [%] | Activity [7] [%] | Activity [8] [%] | Activity [9] [%] | Activity [10] [%] | Activity [11] [%] | Activity [12] [%] | Activity [13] [%] | Activity [14] [%] |
| --- | --- | --- | --- | --- | --- | --- | --- | --- | --- | --- | --- | --- | --- | --- |
| COc1cc2c(cc1OC)[C@@H]1C(=O)c3ccc4c(c3O[C@@H]1CO2)C[C@H](C(C)(C)O[C@@H]1O[C@H](CO)[C@@H](O)[C@H](O)[C@H]1O)O4 | 100 | 80 | 0 | 80 | 80 | 80 | 87.3 | 36.3 | – | – | – | – | – | – |
| COc1cc2c(cc1OC)[C@]1(O)C(=O)c3ccc4c(c3O[C@@H]1CO2)C[C@H](C(C)(C)O)O4 | 100 | 80 | 22.6 | 80 | 80 | 80 | 82.1 | 43.9 | – | – | – | – | – | – |
| C=C(CO)[C@H]1Cc2c(ccc3c2O[C@@H]2COc4cc(OC)c(OC)cc4[C@@H]2C3=O)O1 [AMORPHIGENIN] | 100 | 80 | 31.7 | 80 | 80 | 80 | 100 | 64.2 | – | – | – | – | – | – |
| COC1=CC(=O)[C@]2(C=C1OC)OC[C@H]1Oc3c(ccc4c3C=CC(C)(C)O4)C(=O)[C@H]12 [AMORPHISPIRONONE] | 100 | 80 | 0 | 80 | 80 | 20 | 70.4 | 31.8 | 30.6 | 20 | 59.1 | >80 | 10.3 | >90 |
| C=C(CO)[C@H]1Cc2c(ccc3c2O[C@@H]2COc4cc(OC)c(OC)cc4[C@]2(O)C3=O)O1 [DABINOL] | 100 | 80 | 24.2 | 80 | 80 | 80 | 100 | 89.7 | – | – | – | – | – | – |
| COc1cc2c(cc1OC)[C@]1(O)C(=O)c3ccc4c(c3O[C@@H]1CO2)C=CC(C)(C)O4 [TEPHROSIN] | 89.3 | 60 | 8 | 70 | 80 | 40 | 60.4 | 26.1 | 28.8 | – | 57.8 | 60 | 13.4 | 70 |
